System: Unknown protein yeast genes
Test: DNA chip mRNA expression in yeast, unknown protein yeast genes (Table 1)
Format: cell-based, Saccharomyces cerevisiae S288C
Summary of the method: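 Chemical exposure: 2 h, log-phase S. cerevisiae S288C, YPD, 25° C., dose set to inhibit growth without death. Profiling: mRNA labeled by reverse transcription with Cy3- or Cy5-dUTP, hybridized to whole-genome array. Output: fluorescence ratio against untreated culture.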

S=C([S-])NCCNC(=S)[S-].[Zn+2] [(11), zinc N,N′-ethylenebis(dithiocarbamate)]
The level of expressed mRNA in the presence of chemical substance/The level of expressed mRNA in the absence of chemical substance (yeast gene YKL153W, incubated two hours with chemical substance): 2.1
The level of expressed mRNA in the presence of chemical substance/The level of expressed mRNA in the absence of chemical substance (yeast gene YKL195W, incubated two hours with chemical substance): 1.0
The level of expressed mRNA in the presence of chemical substance/The level of expressed mRNA in the absence of chemical substance (yeast gene YKR033C): 0.3
The level of expressed mRNA in the presence of chemical substance/The level of expressed mRNA in the absence of chemical substance (yeast gene YKR091W, incubated two hours with chemical substance): 1.1
The level of expressed mRNA in the presence of chemical substance/The level of expressed mRNA in the absence of chemical substance (yeast gene YLR054C, incubated two hours with chemical substance): 0.7
The level of expressed mRNA in the presence of chemical substance/The level of expressed mRNA in the absence of chemical substance (yeast gene YLR149C, incubated two hours with chemical substance): 2.8
The level of expressed mRNA in the presence of chemical substance/The level of expressed mRNA in the absence of chemical substance (yeast gene YLR152C, incubated two hours with chemical substance): 3.6
The level of expressed mRNA in the presence of chemical substance/The level of expressed mRNA in the absence of chemical substance (yeast gene YLR194C, incubated two hours with chemical substance): 1.4
The level of expressed mRNA in the presence of chemical substance/The level of expressed mRNA in the absence of chemical substance (yeast gene YLR324W, incubated two hours with chemical substance): 0.9
The level of expressed mRNA in the presence of chemical substance/The level of expressed mRNA in the absence of chemical substance (yeast gene YLR350W, incubated two hours with chemical substance): 0.9
The level of expressed mRNA in the presence of chemical substance/The level of expressed mRNA in the absence of chemical substance (yeast gene YLR387C, incubated two hours with chemical substance): 0.9
The level of expressed mRNA in the presence of chemical substance/The level of expressed mRNA in the absence of chemical substance (yeast gene YLR460C): 14.3
The level of expressed mRNA in the presence of chemical substance/The level of expressed mRNA in the absence of chemical substance (yeast gene YML117W, incubated two hours with chemical substance): 0.8
The level of expressed mRNA in the presence of chemical substance/The level of expressed mRNA in the absence of chemical substance (yeast gene YMR009W, incubated two hours with chemical substance): 2.1
The level of expressed mRNA in the presence of chemical substance/The level of expressed mRNA in the absence of chemical substance (yeast gene YMR067C, incubated two hours with chemical substance): 1.1
The level of expressed mRNA in the presence of chemical substance/The level of expressed mRNA in the absence of chemical substance (yeast gene YMR090W): 8.8
The level of expressed mRNA in the presence of chemical substance/The level of expressed mRNA in the absence of chemical substance (yeast gene YMR095C, incubated two hours with chemical substance): 2.1
The level of expressed mRNA in the presence of chemical substance/The level of expressed mRNA in the absence of chemical substance (yeast gene YMR097C, incubated two hours with chemical substance): 1.5
The level of expressed mRNA in the presence of chemical substance/The level of expressed mRNA in the absence of chemical substance (yeast gene YMR102C, incubated two hours with chemical substance): 1.5
The level of expressed mRNA in the presence of chemical substance/The level of expressed mRNA in the absence of chemical substance (yeast gene YMR107W, incubated two hours with chemical substance): 3.0
The level of expressed mRNA in the presence of chemical substance/The level of expressed mRNA in the absence of chemical substance (yeast gene YMR180C, incubated two hours with chemical substance): 0.7
The level of expressed mRNA in the presence of chemical substance/The level of expressed mRNA in the absence of chemical substance (yeast gene YMR184W, incubated two hours with chemical substance): 1.5
The level of expressed mRNA in the presence of chemical substance/The level of expressed mRNA in the absence of chemical substance (yeast gene YMR191W, incubated two hours with chemical substance): 2.3
The level of expressed mRNA in the presence of chemical substance/The level of expressed mRNA in the absence of chemical substance (yeast gene YMR295C, incubated two hours with chemical substance): 1.2
The level of expressed mRNA in the presence of chemical substance/The level of expressed mRNA in the absence of chemical substance (yeast gene YMR316W, incubated two hours with chemical substance): 1.5
The level of expressed mRNA in the presence of chemical substance/The level of expressed mRNA in the absence of chemical substance (yeast gene YNL044W, incubated two hours with chemical substance): 1.1
The level of expressed mRNA in the presence of chemical substance/The level of expressed mRNA in the absence of chemical substance (yeast gene YNL074C, incubated two hours with chemical substance): 1.3
The level of expressed mRNA in the presence of chemical substance/The level of expressed mRNA in the absence of chemical substance (yeast gene YNL092W, incubated two hours with chemical substance): 0.7
The level of expressed mRNA in the presence of chemical substance/The level of expressed mRNA in the absence of chemical substance (yeast gene YNL115C, incubated two hours with chemical substance): 1.1
The level of expressed mRNA in the presence of chemical substance/The level of expressed mRNA in the absence of chemical substance (yeast gene YNL156C, incubated two hours with chemical substance): 1.4
The level of expressed mRNA in the presence of chemical substance/The level of expressed mRNA in the absence of chemical substance (yeast gene YNL234W, incubated two hours with chemical substance): 1.3
The level of expressed mRNA in the presence of chemical substance/The level of expressed mRNA in the absence of chemical substance (yeast gene YNL281W, incubated two hours with chemical substance): 1.6
The level of expressed mRNA in the presence of chemical substance/The level of expressed mRNA in the absence of chemical substance (yeast gene YNL305C, incubated two hours with chemical substance): 1.8
The level of expressed mRNA in the presence of chemical substance/The level of expressed mRNA in the absence of chemical substance (yeast gene YNR068C, incubated two hours with chemical substance): 1.1
The level of expressed mRNA in the presence of chemical substance/The level of expressed mRNA in the absence of chemical substance (yeast gene YOL032W, incubated two hours with chemical substance): 1.4
The level of expressed mRNA in the presence of chemical substance/The level of expressed mRNA in the absence of chemical substance (yeast gene YOL036W, incubated two hours with chemical substance): 2.2
The level of expressed mRNA in the presence of chemical substance/The level of expressed mRNA in the absence of chemical substance (yeast gene YOL047C, incubated two hours with chemical substance): 0.9
The level of expressed mRNA in the presence of chemical substance/The level of expressed mRNA in the absence of chemical substance (yeast gene YOL071W, incubated two hours with chemical substance): 4.3
The level of expressed mRNA in the presence of chemical substance/The level of expressed mRNA in the absence of chemical substance (yeast gene YOL082W, incubated two hours with chemical substance): 1.6
The level of expressed mRNA in the presence of chemical substance/The level of expressed mRNA in the absence of chemical substance (yeast gene YOL083W, incubated two hours with chemical substance): 1.3
The level of expressed mRNA in the presence of chemical substance/The level of expressed mRNA in the absence of chemical substance (yeast gene YOL117W, incubated two hours with chemical substance): 1.0
The level of expressed mRNA in the presence of chemical substance/The level of expressed mRNA in the absence of chemical substance (yeast gene YOL131W, incubated two hours with chemical substance): 1.4
The level of expressed mRNA in the presence of chemical substance/The level of expressed mRNA in the absence of chemical substance (yeast gene YOL150C): 9.4
The level of expressed mRNA in the presence of chemical substance/The level of expressed mRNA in the absence of chemical substance (yeast gene YOL162W, incubated two hours with chemical substance): 4.3
The level of expressed mRNA in the presence of chemical substance/The level of expressed mRNA in the absence of chemical substance (yeast gene YOR019W, incubated two hours with chemical substance): 1.7
The level of expressed mRNA in the presence of chemical substance/The level of expressed mRNA in the absence of chemical substance (yeast gene YOR197W, incubated two hours with chemical substance): 1.0
The level of expressed mRNA in the presence of chemical substance/The level of expressed mRNA in the absence of chemical substance (yeast gene YPL087W, incubated two hours with chemical substance): 2.5
The level of expressed mRNA in the presence of chemical substance/The level of expressed mRNA in the absence of chemical substance (yeast gene YPL196W, incubated two hours with chemical substance): 1.7
The level of expressed mRNA in the presence of chemical substance/The level of expressed mRNA in the absence of chemical substance (yeast gene YPL206C, incubated two hours with chemical substance): 1.5
The level of expressed mRNA in the presence of chemical substance/The level of expressed mRNA in the absence of chemical substance (yeast gene YPL222W, incubated two hours with chemical substance): 1.2
The level of expressed mRNA in the presence of chemical substance/The level of expressed mRNA in the absence of chemical substance (yeast gene YPR023C, incubated two hours with chemical substance): 1.7
The level of expressed mRNA in the presence of chemical substance/The level of expressed mRNA in the absence of chemical substance (yeast gene YPR151C, incubated two hours with chemical substance): 1.4

From US8192962B2, “Processes for detecting toxic substances” (Daikin Industries, Ltd., priority 2001, dated 2012)
